# Laboratory results: paper PMC5673638 (Frontiers in Microbiology, 2017)
# “And” between values parts separate entries of the source, which are not always exact repeats. Equal entries are not always repeated. “Also recorded” adds a separate entry of the source. Where two headings read alike, the source gives them in different places.
# Experiments:
# [1] = test system: H5N1 strain A/Mallard/Bavaria/1/2006; assay: microbe, parasite or virus in culture; assay type: cell-based, influenza A virus; conditions: for EC50: read-out: EC50 (concentration required to reduce the virus titer to 50%)
# [2] = mouse, in vivo
# in vivo = conditions: mouse, po
# [3] = cited from earlier work
# [4] = test system: highly pathogenic influenza virus; design: species or system C57BL/6 mice; conditions: mouse, in vivo
# [5] = test system: A/Regensburg/D6/2009 H1N1pdm09 strain
# [6] = test system: caspase activation (PARP cleavage)
# [7] = test system: A/FPV/Bratislava/79 (H7N7) viral proteins M1, NP, NS1, PB1
# [8] = test system: vRNP complexes of H5N1 A/Thailand/KAN-1/2004
# [9] = test system: H5N1 influenza virus A/Mallard/Bavaria/1/2006
# [10] = test system: influenza virus strain A/FPV/Bratislava/79 (H7N7); conditions: mouse
# [11] = test system: influenza virus strain (H5N1; MB1); conditions: mouse, in vivo
compound,measurement,setting,value
"CC(=O)Oc1ccccc1C(=O)O [ASA, Acetylsalicylic acid]",Antiviral effect on virus titers over time,[1],"less potent compared to BAY 81-8781; also recorded: An antiviral effect was also found with ASA (gray triangles) and SA (open triangle) 24 h and 32 h post-infection which, however, was leveled-out at the 48 h time-point"
same,EC50,"[1]; Influenza A virus, H5N1, A549, in Anas platyrhynchos",170 ± 50 µM
same,"AUC and Cmax, plasma compared to lung homogenate",[2],about four-fold higher in plasma
same,AUC,[2]; iv,0.0781 mg⋅h/L
same,Plasma clearance,[2]; iv,high
same,Terminal half-lives,[2]; iv,short
same,Volume of distribution at steady state,[2]; iv,moderate
same,AUC,"[2]; po, 15 mg/kg",0.0688 mg⋅h/L
same,t1/2,"[2]; po, 15 mg/kg",4.54 min
same,bioavailability,in vivo,~10%
same,bioavailability,in vivo; 15 mg/kg,10.3%
same,half-life,"in vivo; 15 mg/kg, t1/2",8.64 min
same,Stability in plasma,[3],not stable in plasma
"D,L-lysine acetylsalicylate ⋅ glycine [BAY 81-8781]",Antiviral effect on virus titers over time,[1],strong and sustained reduction of virus titers at all time-points; also recorded: even stronger reduction of virus titers at all time-points
same,EC50,[1],160 ± 60 µM
same,Day of death (p.i.),[4],8.8 days p.i. and 8.8 ± 1.3 days p.i.
same,Delay of death of non-protected mice compared to solvent animals,[4],2 days
same,Survival (survival/total),[4],4/8
same,Weight loss and disease symptoms,[4],either showed no or only slight weight loss and marginal disease symptoms
same,Reduction of virus propagation,[5],effective to reduce virus propagation
same,TNFα induced activation of TRAIL mRNA,TRAIL mRNA expression,significantly reduced
same,Cleavage of caspase substrate PARP,[6],reduces the cleavage of the major caspase substrate PARP
same,Accumulation of viral proteins,[7],does not impact accumulation of viral proteins
same,Release of vRNPs from the nucleus,[8],strongly retained and accumulated in the nucleus
same,"Antiviral effect, compound present for 30 min or 1 h",[9],no antiviral effects were found
same,"Antiviral effect, compound present for 2 h or 4 h",[9],a dose dependent antiviral effect was found
same,Virus titer reduction,[9],> 80%
same,EC50 in vivo (concentration of inhaled BAY 81-8781 solution),[10],1.56% and 1.5%
same,"Reduction of lung virus titers, oral route",[10]; in vivo,no reduction of virus titers was found
same,Disease progression (symptom score),[11],rather moderate
same,Mice protected from death,[11],87.5% and 62.5%
same,Mice protected from death (protected/total),[11],5/8
same,Weight loss,[11],only a moderate weight loss
salicylate,Antiviral effect on virus titers over time,[1],"No antiviral effect; also recorded: An antiviral effect was also found with ASA (gray triangles) and SA (open triangle) 24 h and 32 h post-infection which, however, was leveled-out at the 48 h time-point"
same,EC50,[1],700 ± 40 µM
same,"AUC and Cmax, plasma compared to lung homogenate",[2],about four-fold higher in plasma
same,"Cmax, plasma compared to lung",[2],about three-fold higher in plasma than in lung
same,"AUC in plasma, SA compared to ASA",[2]; iv,about 25 fold
same,AUCnorm,[2]; iv,5.28 kg⋅h/L
same,"Cmax in plasma, SA compared to ASA",[2]; iv,~2.5 fold
same,AUC,[2]; po,15.3 mg⋅h/L
same,Cmax,[2]; po,12.5 mg/L
